# According to ChEMBL document CHEMBL4507273 (2021):
# Experiments:
# [1] = target: Tyrosine-protein kinase ABL1 (Homo sapiens) (UniProt P00519); conditions: Compound concentration 1000.0 nM
# [2] = target: Interleukin-1 receptor-associated kinase 1 (Homo sapiens) (UniProt P51617); conditions: Compound concentration 1000.0 nM
# [3] = target: Tyrosine-protein kinase JAK3 (Homo sapiens) (UniProt P52333); conditions: Compound concentration 1000.0 nM
# [4] = target: Myosin-IIIb (Homo sapiens) (UniProt Q8WXR4); conditions: Compound concentration 1000.0 nM
# [5] = target: Mitogen-activated protein kinase 8 (Homo sapiens) (UniProt P45983); conditions: Compound concentration 1000.0 nM
# [6] = target: Muscarinic acetylcholine receptor M5 (Homo sapiens) (UniProt P08912); conditions: Compound concentration 10.0 uM
# [7] = target: T1, Protein kinase C epsilon type (Homo sapiens) (UniProt Q02156); conditions: Compound concentration 1000.0 nM
# T1 sequence (whole entry): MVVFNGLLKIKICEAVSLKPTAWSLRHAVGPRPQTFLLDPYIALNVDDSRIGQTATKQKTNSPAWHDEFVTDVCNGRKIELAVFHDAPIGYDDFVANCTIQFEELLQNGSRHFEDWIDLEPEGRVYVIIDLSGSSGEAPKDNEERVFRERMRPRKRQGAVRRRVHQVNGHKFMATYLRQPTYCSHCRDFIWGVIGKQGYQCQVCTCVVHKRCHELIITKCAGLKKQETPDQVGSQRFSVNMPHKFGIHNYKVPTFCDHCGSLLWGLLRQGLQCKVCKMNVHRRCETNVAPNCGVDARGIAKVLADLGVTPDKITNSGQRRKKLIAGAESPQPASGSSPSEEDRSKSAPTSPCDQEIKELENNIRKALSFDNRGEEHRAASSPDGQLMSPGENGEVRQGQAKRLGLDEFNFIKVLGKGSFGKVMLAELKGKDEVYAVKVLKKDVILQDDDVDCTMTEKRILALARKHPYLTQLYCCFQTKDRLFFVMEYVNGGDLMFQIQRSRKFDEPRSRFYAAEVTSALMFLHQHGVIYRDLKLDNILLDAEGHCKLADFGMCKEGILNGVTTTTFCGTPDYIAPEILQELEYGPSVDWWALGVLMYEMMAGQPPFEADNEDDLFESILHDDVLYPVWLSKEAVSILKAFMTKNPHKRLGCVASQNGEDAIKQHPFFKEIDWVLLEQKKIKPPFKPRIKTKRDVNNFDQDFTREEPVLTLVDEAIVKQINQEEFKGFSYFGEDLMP
# [8] = target: Calcium/calmodulin-dependent protein kinase type 1 (Homo sapiens) (UniProt Q14012); conditions: Compound concentration 1000.0 nM
# [9] = target: Serine/threonine-protein kinase SIK2 (Homo sapiens) (UniProt Q9H0K1); conditions: Compound concentration 1000.0 nM
# [10] = target: Serine/threonine-protein kinase SBK1 (Homo sapiens) (UniProt Q52WX2); conditions: Compound concentration 1000.0 nM
# [11] = target: Tyrosine-protein kinase receptor UFO (Homo sapiens) (UniProt P30530); conditions: Compound concentration 1000.0 nM
# [12] = target: Wee1-like protein kinase (Homo sapiens) (UniProt P30291); conditions: Compound concentration 1000.0 nM
# [13] = target: Activated CDC42 kinase 1 (Homo sapiens) (UniProt Q07912); conditions: Compound concentration 1000.0 nM
# [14] = target: Calcium/calmodulin-dependent protein kinase kinase 2 (Homo sapiens) (UniProt Q96RR4); conditions: Compound concentration 1000.0 nM
# [15] = target: 5-hydroxytryptamine receptor 3A (Homo sapiens) (UniProt P46098); conditions: Compound concentration 10.0 uM
# Histamine H2 receptor = Histamine H2 receptor (Homo sapiens, UniProt P25021); assay: GPCRScan assay: inhibition of H2; design: radioligand conc. used [nm] 0.02 – 0.05, parental cells Stable HEK
# [16] = target: T2, 5-hydroxytryptamine receptor 1A (Homo sapiens) (UniProt P08908); conditions: Compound concentration 10.0 uM
# T2 sequence (whole entry): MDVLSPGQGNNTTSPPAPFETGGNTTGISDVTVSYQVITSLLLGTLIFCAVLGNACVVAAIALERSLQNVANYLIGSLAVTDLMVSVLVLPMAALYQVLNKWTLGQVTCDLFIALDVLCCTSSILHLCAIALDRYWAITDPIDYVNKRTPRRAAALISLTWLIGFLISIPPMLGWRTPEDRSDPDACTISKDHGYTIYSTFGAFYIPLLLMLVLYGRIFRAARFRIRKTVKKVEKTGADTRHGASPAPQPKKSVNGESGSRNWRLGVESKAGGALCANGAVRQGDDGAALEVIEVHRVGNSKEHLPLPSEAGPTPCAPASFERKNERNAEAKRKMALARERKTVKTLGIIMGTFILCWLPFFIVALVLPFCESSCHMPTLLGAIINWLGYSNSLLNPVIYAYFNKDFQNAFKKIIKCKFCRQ
# [17] = target: Cyclin-dependent kinase 7 (Homo sapiens) (UniProt P50613); conditions: Compound concentration 1000.0 nM
# [18] = target: Serine/threonine-protein kinase D2 (Homo sapiens) (UniProt Q9BZL6); conditions: Compound concentration 1000.0 nM
# [19] = target: Sigma intracellular receptor 2 (Homo sapiens, UniProt Q5BJF2); conditions: Compound concentration 10.0 uM
# [20] = target: Dual serine/threonine and tyrosine protein kinase (Homo sapiens) (UniProt Q6XUX3); conditions: Compound concentration 1000.0 nM
# [21] = system: Mast/stem cell growth factor receptor Kit (Homo sapiens), P10721 [D816H]; conditions: Compound concentration 1000.0 nM
# [22] = target: Tyrosine-protein kinase HCK (Homo sapiens) (UniProt P08631); conditions: Compound concentration 1000.0 nM
# [23] = target: MAP kinase-interacting serine/threonine-protein kinase 2 (Homo sapiens) (UniProt Q9HBH9); conditions: Compound concentration 1000.0 nM
# [24] = system: Mast/stem cell growth factor receptor Kit (Homo sapiens), P10721 [D816V]; conditions: Compound concentration 1000.0 nM
# Sequence of Histamine H2 receptor (P25021 whole entry): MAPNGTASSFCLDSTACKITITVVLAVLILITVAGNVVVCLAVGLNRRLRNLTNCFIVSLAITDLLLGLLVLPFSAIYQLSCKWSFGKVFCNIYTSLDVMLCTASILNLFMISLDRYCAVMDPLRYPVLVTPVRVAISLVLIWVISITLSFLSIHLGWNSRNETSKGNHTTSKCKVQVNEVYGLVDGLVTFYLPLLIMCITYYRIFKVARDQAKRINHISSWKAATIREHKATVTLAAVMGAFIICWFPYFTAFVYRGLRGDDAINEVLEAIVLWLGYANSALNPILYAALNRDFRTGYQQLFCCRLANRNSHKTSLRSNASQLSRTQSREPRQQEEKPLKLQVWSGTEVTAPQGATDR
# Sequence of Tyrosine-protein kinase ABL1 (Homo sapiens) (P00519 whole entry): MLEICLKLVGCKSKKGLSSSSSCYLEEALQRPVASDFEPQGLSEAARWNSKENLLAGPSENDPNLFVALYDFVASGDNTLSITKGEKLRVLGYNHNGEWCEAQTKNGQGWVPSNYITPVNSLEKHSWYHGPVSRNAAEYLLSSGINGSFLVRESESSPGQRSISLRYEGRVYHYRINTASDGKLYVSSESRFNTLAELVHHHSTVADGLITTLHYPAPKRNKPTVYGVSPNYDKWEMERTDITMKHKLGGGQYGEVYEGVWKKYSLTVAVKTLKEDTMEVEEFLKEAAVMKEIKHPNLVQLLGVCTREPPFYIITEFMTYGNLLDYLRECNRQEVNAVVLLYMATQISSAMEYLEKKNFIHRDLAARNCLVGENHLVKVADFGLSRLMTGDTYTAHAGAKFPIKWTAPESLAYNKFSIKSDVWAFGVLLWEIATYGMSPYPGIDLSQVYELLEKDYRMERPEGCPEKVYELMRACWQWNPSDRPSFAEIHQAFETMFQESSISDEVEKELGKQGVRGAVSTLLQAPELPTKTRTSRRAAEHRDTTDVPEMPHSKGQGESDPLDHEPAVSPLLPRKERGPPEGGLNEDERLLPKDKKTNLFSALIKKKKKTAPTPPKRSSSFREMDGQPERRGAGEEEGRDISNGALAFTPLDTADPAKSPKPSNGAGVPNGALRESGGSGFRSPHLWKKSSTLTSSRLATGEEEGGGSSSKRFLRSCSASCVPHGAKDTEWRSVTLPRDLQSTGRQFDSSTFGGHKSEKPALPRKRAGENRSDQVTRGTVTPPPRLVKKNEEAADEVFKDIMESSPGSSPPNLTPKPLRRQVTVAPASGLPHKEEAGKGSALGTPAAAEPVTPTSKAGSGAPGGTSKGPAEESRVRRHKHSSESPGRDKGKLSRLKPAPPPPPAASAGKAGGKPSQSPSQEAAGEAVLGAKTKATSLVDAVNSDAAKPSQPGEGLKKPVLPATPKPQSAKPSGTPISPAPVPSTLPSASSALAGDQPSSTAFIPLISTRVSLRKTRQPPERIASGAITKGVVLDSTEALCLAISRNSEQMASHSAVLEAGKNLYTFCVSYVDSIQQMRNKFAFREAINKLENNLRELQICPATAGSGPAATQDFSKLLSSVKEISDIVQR
# Sequence of Calcium/calmodulin-dependent protein kinase type 1 (Homo sapiens) (Q14012 whole entry, looked up): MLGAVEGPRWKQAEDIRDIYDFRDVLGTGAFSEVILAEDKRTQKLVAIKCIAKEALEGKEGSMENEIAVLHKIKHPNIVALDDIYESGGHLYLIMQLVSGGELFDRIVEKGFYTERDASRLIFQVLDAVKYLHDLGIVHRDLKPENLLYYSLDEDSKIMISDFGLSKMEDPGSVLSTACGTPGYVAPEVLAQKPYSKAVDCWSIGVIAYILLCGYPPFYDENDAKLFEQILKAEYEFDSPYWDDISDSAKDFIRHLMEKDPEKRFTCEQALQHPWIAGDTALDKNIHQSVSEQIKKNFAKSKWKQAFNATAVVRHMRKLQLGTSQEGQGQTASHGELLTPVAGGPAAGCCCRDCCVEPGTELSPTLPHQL
# Sequence of Serine/threonine-protein kinase SBK1 (Homo sapiens) (Q52WX2 whole entry): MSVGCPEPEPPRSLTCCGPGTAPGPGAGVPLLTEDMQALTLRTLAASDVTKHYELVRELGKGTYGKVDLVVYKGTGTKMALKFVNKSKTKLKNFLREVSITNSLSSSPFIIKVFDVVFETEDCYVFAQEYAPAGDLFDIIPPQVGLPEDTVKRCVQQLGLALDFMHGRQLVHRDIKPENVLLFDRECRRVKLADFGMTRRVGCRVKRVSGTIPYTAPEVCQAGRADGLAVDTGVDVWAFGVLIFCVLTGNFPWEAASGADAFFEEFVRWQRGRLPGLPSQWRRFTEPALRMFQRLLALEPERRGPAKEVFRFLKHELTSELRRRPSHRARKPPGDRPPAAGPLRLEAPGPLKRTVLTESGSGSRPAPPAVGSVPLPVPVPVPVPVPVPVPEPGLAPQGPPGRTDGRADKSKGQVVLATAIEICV
# Sequence of Tyrosine-protein kinase JAK3 (Homo sapiens) (P52333 whole entry): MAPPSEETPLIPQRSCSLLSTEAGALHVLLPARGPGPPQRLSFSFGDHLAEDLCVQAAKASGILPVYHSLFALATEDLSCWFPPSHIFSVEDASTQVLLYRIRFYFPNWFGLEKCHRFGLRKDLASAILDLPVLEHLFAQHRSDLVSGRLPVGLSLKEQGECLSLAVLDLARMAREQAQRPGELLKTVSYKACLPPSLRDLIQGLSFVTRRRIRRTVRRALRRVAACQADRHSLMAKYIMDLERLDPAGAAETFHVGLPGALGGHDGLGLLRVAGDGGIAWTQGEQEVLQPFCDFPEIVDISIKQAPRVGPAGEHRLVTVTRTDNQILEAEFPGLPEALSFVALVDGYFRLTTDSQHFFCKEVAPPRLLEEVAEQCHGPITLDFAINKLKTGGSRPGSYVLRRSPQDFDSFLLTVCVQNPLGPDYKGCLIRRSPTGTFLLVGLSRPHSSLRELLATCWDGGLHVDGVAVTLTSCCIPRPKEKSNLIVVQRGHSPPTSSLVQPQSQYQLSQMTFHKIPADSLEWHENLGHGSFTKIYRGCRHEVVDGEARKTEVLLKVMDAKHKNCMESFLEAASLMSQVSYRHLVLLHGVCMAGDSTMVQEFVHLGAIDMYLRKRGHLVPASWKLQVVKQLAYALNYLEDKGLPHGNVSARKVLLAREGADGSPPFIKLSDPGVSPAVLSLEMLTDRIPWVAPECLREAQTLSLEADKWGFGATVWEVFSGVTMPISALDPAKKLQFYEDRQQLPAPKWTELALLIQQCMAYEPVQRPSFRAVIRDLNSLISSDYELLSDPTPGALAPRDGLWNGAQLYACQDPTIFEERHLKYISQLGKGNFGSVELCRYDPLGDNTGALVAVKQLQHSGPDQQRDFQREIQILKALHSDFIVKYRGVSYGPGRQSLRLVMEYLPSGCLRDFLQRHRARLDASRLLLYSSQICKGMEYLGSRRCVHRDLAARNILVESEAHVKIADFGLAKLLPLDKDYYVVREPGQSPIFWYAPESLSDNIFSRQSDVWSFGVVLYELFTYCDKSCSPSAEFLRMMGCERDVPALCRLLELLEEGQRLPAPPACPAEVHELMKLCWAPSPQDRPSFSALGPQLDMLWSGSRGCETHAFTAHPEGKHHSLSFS
# Sequence of MAP kinase-interacting serine/threonine-protein kinase 2 (Homo sapiens) (Q9HBH9 whole entry, looked up): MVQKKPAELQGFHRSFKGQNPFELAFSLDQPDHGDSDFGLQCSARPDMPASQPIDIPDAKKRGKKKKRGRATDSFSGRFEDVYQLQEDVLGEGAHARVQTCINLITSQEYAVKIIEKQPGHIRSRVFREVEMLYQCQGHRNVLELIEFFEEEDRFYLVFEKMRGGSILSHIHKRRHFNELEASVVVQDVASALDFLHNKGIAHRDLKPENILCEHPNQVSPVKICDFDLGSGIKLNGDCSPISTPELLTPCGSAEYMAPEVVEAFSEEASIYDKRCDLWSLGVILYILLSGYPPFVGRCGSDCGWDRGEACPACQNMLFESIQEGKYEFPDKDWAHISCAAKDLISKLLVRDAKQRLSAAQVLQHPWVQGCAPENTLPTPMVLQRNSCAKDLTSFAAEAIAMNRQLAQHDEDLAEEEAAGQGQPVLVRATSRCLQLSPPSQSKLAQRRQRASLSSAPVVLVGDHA
# Sequence of Tyrosine-protein kinase receptor UFO (Homo sapiens) (P30530 whole entry): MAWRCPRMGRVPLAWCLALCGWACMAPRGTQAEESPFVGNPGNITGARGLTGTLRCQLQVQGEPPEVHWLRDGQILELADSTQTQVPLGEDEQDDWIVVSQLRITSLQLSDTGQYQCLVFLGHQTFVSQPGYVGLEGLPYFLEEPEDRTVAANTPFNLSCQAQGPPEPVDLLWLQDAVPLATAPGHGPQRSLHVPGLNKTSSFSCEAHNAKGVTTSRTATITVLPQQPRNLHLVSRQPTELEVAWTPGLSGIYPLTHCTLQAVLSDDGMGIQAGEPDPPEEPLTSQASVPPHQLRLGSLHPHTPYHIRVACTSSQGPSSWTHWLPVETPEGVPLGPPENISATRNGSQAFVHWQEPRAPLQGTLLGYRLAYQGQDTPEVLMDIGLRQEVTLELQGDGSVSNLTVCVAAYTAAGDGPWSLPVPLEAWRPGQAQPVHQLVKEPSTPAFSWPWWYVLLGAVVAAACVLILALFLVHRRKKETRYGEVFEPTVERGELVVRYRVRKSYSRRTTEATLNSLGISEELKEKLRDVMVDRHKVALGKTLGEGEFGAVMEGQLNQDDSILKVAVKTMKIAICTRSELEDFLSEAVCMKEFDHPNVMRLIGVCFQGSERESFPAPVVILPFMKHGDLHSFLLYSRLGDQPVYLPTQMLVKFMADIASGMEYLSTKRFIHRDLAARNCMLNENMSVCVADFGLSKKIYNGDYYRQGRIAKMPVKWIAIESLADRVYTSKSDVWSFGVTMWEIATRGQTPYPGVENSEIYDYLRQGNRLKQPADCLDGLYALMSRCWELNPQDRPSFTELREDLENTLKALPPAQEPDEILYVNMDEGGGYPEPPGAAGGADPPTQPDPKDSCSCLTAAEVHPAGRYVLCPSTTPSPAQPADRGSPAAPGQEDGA
# Sequence of Sigma intracellular receptor 2 (Q5BJF2 whole entry): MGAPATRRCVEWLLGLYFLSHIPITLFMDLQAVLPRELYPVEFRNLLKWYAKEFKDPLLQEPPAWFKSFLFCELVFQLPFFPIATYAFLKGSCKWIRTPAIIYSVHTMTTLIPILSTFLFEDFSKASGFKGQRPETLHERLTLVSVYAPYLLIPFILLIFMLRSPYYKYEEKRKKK
SMILES,residual activity [1],residual activity [2],residual activity [3],residual activity [4],residual activity [5],inhibition [6],residual activity [7],residual activity [8],residual activity [9],residual activity [10],residual activity [11],residual activity [12],residual activity [13],residual activity [14],inhibition [15],Ki (Histamine H2 receptor; read-out: Ki),inhibition [16],residual activity [17],residual activity [18],inhibition [19],also measured
CNCc1ccccc1-c1csc([C@@H](C)Nc2nc(C)nc3cc(OC)c(OC)cc23)c1 [BAY-293],80%,71%,94%,47%,66%,64.8%,74%,100%,100%,100%,93%,100%,100%,100%,17.1%,140 nM,56.5%,63%,100%,94.8%,Ki (Histamine H2 receptor; read-out: pKi (converted)): 140 nM; residual activity [20]: 83%; residual activity [21]: 85%; residual activity [22]: 97%; residual activity [23]: 63%; residual activity [24]: 81%
CNCc1ccccc1-c1csc([C@H](C)Nc2nc(C)nc3cc(OC)c(OC)cc23)c1 [BAY-294],87%,80%,99%,87%,81%,54.1%,78%,100%,100%,100%,100%,100%,100%,82%,16%,21.1 nM,93.8%,61%,99%,83.2%,residual activity [20]: 78%; residual activity [21]: 95%; residual activity [22]: 98%; residual activity [23]: 71%; residual activity [24]: 100%
